{"source": "patent US20250092395A1", "about": "“A GLUN2D INHIBITOR FOR USE IN THE TREATMENT OR RELAPSE PREVENTION OF A DEPRESSIVE EPISODE” (priority 2022, published 2025)", "key": {"[1]": {"system": "mice subjected to the chronic despair model (CDM)", "assay": "Chronic despair model (CDM) swim test, immobility time", "type": "in vivo", "conditions": "CDM mice, test day", "procedure": "Induction phase: Mice were forced to swim in a glass cylinder (0 26 cm, 60 cm high) filled to 25 cm with 25° C. warm water for 10 min on 5 consecutive days. After the swimming, the animals were kept in their cages for two days before treatment and experiment readout was performed. The immobility time was measured in each session.\n(§1) Behavioral Readout: After the treatment intervention, animals were either tested in an additional swim session (test day) to measure immobility time or tested in the InteliCage using the Nose-pokes sucrose preference test. For the assessment of the immobility time, mice were videotaped and two independent raters who were blinded to the experimental group analyzed the videos. Immobility time was defined as the cumulative time that the animals spend stationary with only enough movements of the tails or the forepaws to keep the head above the water surface. No distance is actively travelled except for passive floating, no directed movement of the front paws observed and the body of the animal mostly oriented parallel to the walls of the cylinder."}, "[2]": {"system": "CA3-CA1 synapse, CA1 pyramidal neurons in hippocampal brain slices", "assay": "LTP/LTD protocols and wash-in in brain slices of unstressed mice, substance in bathing solution", "type": "cell-based", "conditions": "for LTP inducibility, associative LTP protocol (aLTP): bath with picrotoxin, R,S-ketamine 10 μM, S-ketamine 5 μM"}, "[3]": {"system": "NMDAR currents in somatostatin positive Interneurons (SOM)", "assay": "NMDAR currents in voltage-clamp recordings, SOM interneurons", "conditions": "+40 mV, CNQX, bath application 10 μM"}, "CDM mice": {"system": "CDM mice", "assay": "Nose-poke sucrose preference test in CDM mice", "type": "in vivo", "conditions": "CDM mice, POST1 and POST2 nights", "source_text": "as §1\nThe IntelliCage system (TSE Systems) allows simultaneous analysis of spontaneous and exploratory behavior, activity pattern, and drinking preference of up to 16 group-housed mice implanted with radio-frequency identification (RFID) transponders. The unit consists of an open common space with 4 red shelters in the center and 4 recording corners. Mice have free access to food in the middle of the IntelliCage, water is available in the corners behind remote-controlled guillotine doors. Each corner is equipped with 2 drinking bottles and permits the visit of only one mouse at the same time. The scored parameters—the nosepokes toward the doors and the licks on the bottles—were monitored by a PC-based tracking software (IntelliCage Plus, TSE Systems). Initially, the mice were allowed to adapt to the IntelliCage for at least 7 days with water available ad libitum in all corners. Then for 3 days the animals were habituated to the sucrose taste: in each corner one of the bottles was filled with 1% sucrose solution and the other one with water. Both doors in the corner were open allowing free choice between the bottles. Next, a nosepoke adaptation period was carried out, where all doors were closed and the mice had to perform a nosepoke to open them. The opened door closes automatically after 5 s of drinking. In all tasks involving sucrose-filled bottles, the positions of the bottles were exchanged every 24 h. The Nosepoke SPT protocol was used (see Alboni et al.) for measurement of sucrose preference with gradually increasing effort (number of nosepokes) to reach the sucrose bottles for a short period of time (12 h). In this paradigm each door opens in response to a nosepoke and closes after 5 s licking. The number of nosepokes needed to open a door to a side with a sucrose containing bottle gradually increases (1, 2, 3, 4, 5, 6, 8, 10, 12, 16, 20, 24) after every 8 sucrose licking sessions. For each bottle the number of licks was recorded and the averaged sucrose preference was calculated as percentage of the total number of licks."}, "[4]": {"system": "SOM-dependent feedback loop, CA1 PCs", "assay": "Feedback loop-activating protocol (FLAP) in CA1 PCs", "type": "cell-based, mice", "conditions": "for synaptic AP probability (conversion of EPSPs to APs) in FLAP: 10 μM washed in, 10-30 min vs baseline; for EPSP amplitude in the FLAP: wash-in of 10 μM after 10 min baseline", "procedure": "A 300 ms depolarizing current between +100 and +[…] was injected via the patch pipette into a PC to elicit a train of 5-10 APs. After an interval of 600 ms, one EPSP (5-10 mV amplitude) was elicited by Schaffer collateral stimulation. This pattern was continuously repeated at a frequency of 0.2 Hz. Substances were added by bath application after a stable 10 min baseline recording for an additional 20 min. For data analysis the maximum EPSP amplitudes from minutes 0-10 were averaged and compared to averaged maximum EPSP amplitudes from minutes 20-30.\nThe slope of the EPSP rise at 20% to 40% of its maximal amplitude, at which point an approximately linear increase in its voltage could be assumed, was fitted with Fitmaster software (HEKA, Germany). We analyzed 20 EPSPs before and 20 EPSPs 25-30 minutes after NAB-14 wash-in in the FLAP protocol for each experiment. The coefficient of variation (CV) is the standard deviation of the EPSP slopes divided by the mean. The inverse square of the CV of the postwash-in slopes was divided by the inverse square of the prewash-in slopes and plotted against the corresponding normalized slopes. Pre- and postwash-in measurements from a single experiment are connected by a line. In a standard quantal model for synaptic transmission, synaptic responses are affected either by presynaptic changes in the number of release sites and/or the probability of release or by modifications of the postsynaptic response to a single […]. A change in the ratio of CV-2 reflects a presynaptic action, whereas horizontal lines in the CV-2 plot indicate a change in postsynaptic responsiveness."}, "[5]": {"conditions": "unstressed mice, NAB-14 in bathing solution"}}, "note": "Entries after “also recorded” stand apart in the source; their conditions may differ. Where a name gives a salt, the structure may show the parent alone.", "data": [{"smiles": "CCN(CC)C(=O)Oc1ccc(C(=O)Nc2cccc3cc[nH]c23)cc1", "note": "[NAB-14]", "values": [{"measurement": "immobility time", "setting": "[1]; injection of NAB-14 (5/10 μM as printed)", "value": "significantly reduced"}, {"measurement": "EPSP amplitude after aLTD stimulation", "setting": "[2]; [5]", "value": "strongly increased the EPSP amplitude; also recorded: significant increase"}, {"measurement": "basal EPSP-amplitude / synaptic transmission", "setting": "[2]; [5]", "value": "did not change synaptic transmission; also recorded: did not affect basal EPSP-amplitude"}, {"measurement": "IiLTP induced increase of EPSP amplitude", "setting": "[2]; unstressed mice, NAB-14 in bathing solution, vs control IiLTP", "value": "increased IiLTP; also recorded: enhance IiLTP induced increase of EPSP amplitude significantly"}, {"measurement": "amplitude of NMDAR currents in SOM interneurons", "setting": "[3]", "value": "significantly reduced; also recorded: reduce the amplitude of NMDAR currents in SOMs"}, {"measurement": "sucrose preference", "setting": "CDM mice; NAB (5 μM as printed) injection", "value": "fully reestablished"}, {"measurement": "synaptic AP probability (conversion of EPSPs to APs) in FLAP", "setting": "[4]", "value": "significant increase in synaptic AP probability"}, {"measurement": "PC excitability: number of APs during the burst and input resistance (Rm)", "setting": "[4]; NAB-14 10 μM in FLAP", "value": "did not significantly change; also recorded: no significant alteration in AP number; also recorded: no significant change in postsynaptic input resistance"}, {"measurement": "coefficient of variation (CV) analysis of EPSP slopes before and after wash-in", "setting": "[4]; NAB-14 wash-in in FLAP", "value": "consistent with a postsynaptic mechanism"}, {"measurement": "EPSP amplitude in the FLAP", "setting": "[4]", "value": "significantly increased; also recorded: increased significantly"}]}, {"smiles": "CNC1(c2ccccc2Cl)CCCCC1=O", "note": "(stereo not drawn) [R,S-ketamine, R,S-Ketamine hydrochloride]", "values": [{"measurement": "immobility time", "setting": "[1]; 10 mg/kg R,S-ketamine intraperitoneal, vs control", "value": "significantly reduced"}, {"measurement": "LTD induction", "setting": "[2]", "value": "could be blocked"}, {"measurement": "paired-pulse ratio (PPR, EPSP2/EPSP1) before and after weak-aLTP (li-LTP) induction", "setting": "[2]", "value": "unchanged"}, {"measurement": "EPSP amplitude after associative LTD protocol (aLTD, NMDAR-independent)", "setting": "[2]; hydrochloride", "value": "unaffected; also recorded: neither R,S-ketamine (10 μM) nor S-ketamine (5 μM) had an effect"}, {"measurement": "LTD inducibility, non-associative 1 Hz LTD protocol (NMDAR-dependent)", "setting": "[2]; hydrochloride", "value": "fully blocked; also recorded: abolished"}, {"measurement": "LTP inducibility, non-associative 100 Hz LTP protocol", "setting": "[2]; hydrochloride", "value": "significant blockade of inducibility of LTP"}, {"measurement": "aLTP induction", "setting": "[2]; hydrochloride", "value": "neither K nor SK blocked aLTP induction; also recorded: not affected"}, {"measurement": "low intensity LTP (IiLTP) induction", "setting": "[2]; hydrochloride", "value": "blocked LTP induction; also recorded: blockade of LTP induction"}, {"measurement": "low intensity LTP (IiLTP), EPSP amplitude", "setting": "[2]; hydrochloride", "value": "significant increase in EPSP amplitude; also recorded: even enhanced LTP induction"}, {"measurement": "LTP inducibility, associative LTP protocol (aLTP)", "setting": "[2]; unstressed mice, hydrochloride", "value": "significant blockade of inducibility of LTP"}, {"measurement": "LTP inducibility, associative LTP protocol (aLTP)", "setting": "[2]; unstressed mice, listed as K, hydrochloride", "value": "complete inhibition of LTP"}, {"measurement": "amplitude of NMDAR currents in SOM interneurons", "setting": "[3]; hydrochloride", "value": "significantly stronger than in CA1 pyramidal cells; also recorded: significantly more pronounced in SOMs than in PCs"}, {"measurement": "amplitude of NMDAR currents in SOM interneurons", "setting": "[3]; listed as Ketamine, hydrochloride", "value": "significantly more pronounced inhibitory effect"}, {"measurement": "sucrose preference", "setting": "CDM mice; single R,S-ketamine injection, hydrochloride", "value": "renormalized; also recorded: completely reestablished"}, {"measurement": "synaptic AP probability (conversion of EPSPs to APs) in FLAP", "setting": "[4]; hydrochloride", "value": "higher percentage of APs; also recorded: significant increase in synaptic AP probability"}, {"measurement": "EPSP amplitude in the FLAP", "setting": "[4]; hydrochloride", "value": "dramatically increased"}, {"measurement": "EPSP amplitude in the FLAP", "setting": "[4]; listed as ketamine, hydrochloride", "value": "increased significantly"}]}]}
